biological target: T1, CETP (Homo sapiens, UniProt P11597); assay: Assay of CETP Inhibition using Purified Components (Reconstituted Buffer Assay); format: biochemical; design: made in house; host or cells: CHO cells (serum-free conditioned medium); conditions: IC50, Inhibition of CETP activity in reconstituted buffer assay; transfer of [3H]CE from HDL to LDL
T1 sequence (P11597 18-493): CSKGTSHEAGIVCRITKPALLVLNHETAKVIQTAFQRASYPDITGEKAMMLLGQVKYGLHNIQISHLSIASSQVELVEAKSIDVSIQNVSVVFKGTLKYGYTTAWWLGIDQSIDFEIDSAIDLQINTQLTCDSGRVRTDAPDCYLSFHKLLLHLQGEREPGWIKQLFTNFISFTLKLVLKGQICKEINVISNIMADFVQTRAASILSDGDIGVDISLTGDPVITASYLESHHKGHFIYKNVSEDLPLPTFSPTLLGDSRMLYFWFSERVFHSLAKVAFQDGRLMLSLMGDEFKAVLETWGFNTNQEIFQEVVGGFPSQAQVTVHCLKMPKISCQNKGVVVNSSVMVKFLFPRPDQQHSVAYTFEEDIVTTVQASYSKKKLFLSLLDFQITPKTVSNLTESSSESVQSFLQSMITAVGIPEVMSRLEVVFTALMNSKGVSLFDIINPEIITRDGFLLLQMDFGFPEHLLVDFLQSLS
Protocol: Assay of CETP Inhibition using Purified Components (Reconstituted Buffer Assay)
The ability of compounds to inhibit CETP activity was assessed using an in vitro assay that measured the rate of transfer of radiolabeled cholesteryl ester ([^3H]CE) from HDL donor particles to LDL acceptor particles. Details of the assay are provided by Glenn, K. C. et al. (Glenn and Melton, “Quantification of Cholesteryl Ester Transfer Protein (CETP): A) CETP Activity and B) Immunochemical Assay of CETP Protein,” Meth. Enzymol., 263, 339-351 (1996)). Human recombinant CETP can be obtained from the serum-free conditioned medium of CHO cells transfected with a cDNA for CETP and purified as described by Wang, S. et al. (J. Biol. Chem. 267, 17487-17490 (1992)). To measure CETP activity, [^3H]CE-labeled-HDL, LDL, CETP and assay buffer (50 mM tris(hydroxymethyl)aminomethane, pH 7.4; 150 mM sodium chloride; 2 mM ethylenediamine-tetraacetic acid (EDTA); 1% bovine serum albumin) were incubated in a final volume of 200 μL, for 2 hours at 37° C. in 96 well plates. […] The inhibitors were then diluted 1:1 with CETP in assay buffer, and then 25 μL of that solution was mixed with 175 μL of lipoprotein pool for assay. Following incubation, LDL was differentially precipitated by the addition of 50 μL of 1% (w/v) dextran sulfate/0.5 M magnesium chloride, mixed by vortex, and incubated at room temperature for 10 minutes. A potion of the solution (200 μL) was transferred to a filter plate (Millipore). After filtration, the radioactivity present in the precipitated LDL was measured by liquid scintillation counting.
This value was defined as the IC50.
Examples of IC50 values determined by these methods are specified in Table 9.

Row | SMILES | IC50
1 | OC(CN(Cc1cccc(-c2ccncc2)c1)c1cccc(Oc2ccccc2)c1)C(F)(F)F (centres unmarked) [Example 591] | 6.2 µM
2 | OC(CN(Cc1cccc(-c2ncccc2C(F)(F)F)c1)c1cccc(Oc2ccccc2)c1)C(F)(F)F (centres unmarked) [Example 588, 3-[(3-phenoxyphenyl)[[3-[(3-trifluoromethyl)-2-pyridinyl]phenyl]methyl]amino]-1,1,1-trifluoro-2-propanol] | 4.1 µM

same assay, conditions: Inhibition of CETP activity in reconstituted buffer assay; transfer of [3H]CE from HDL to LDL; read-out: IC50

Row | SMILES | IC50
3 | COCCOc1cccc(N(Cc2cccc(OC(F)(F)C(F)F)c2)CC(O)C(F)(F)F)c1 (centres unmarked) [Example 505] | 1.7 µM
4 | OC(CN(Cc1ccccc1)c1ccc(Cl)cc1)C(F)(F)F (centres unmarked) [Example 7] | > 100 µM
5 | CC(CCc1cccc(OC(F)(F)F)c1)N(CC(O)C(F)(F)F)c1cccc(Oc2ccccc2)c1 (centres unmarked) [Example 626, 3-[[1-methyl-3-[3-(trifluoromethoxy)phenyl]propyl](3-phenoxyphenyl)amino]-1,1,1-trifluoro-2-propanol] | 30 µM
6 | O=C(c1ccc(F)cc1)c1cccc(N(Cc2cccc(OC(F)(F)C(F)F)c2)CC(O)C(F)(F)F)c1 (centres unmarked) [Example 580] | 2.3 µM
7 | OC(CN(Cc1cccc(OC(F)(F)C(F)F)c1)c1cccc(CBr)c1)C(F)(F)F (centres unmarked) [514D] | 15 µM
8 | OC(CCN(Cc1cccc(OC(F)(F)F)c1)Cc1cccc(OC(F)(F)F)c1)C(F)(F)F (centres unmarked) [Example 611, 4-[bis-[[3-(trifluoromethoxy)phenyl]methyl]amino]-1,1,1-trifluoro-2-butanol] | 12 µM
9 | Cc1c(COc2cccc(N(Cc3cccc(OC(F)(F)C(F)F)c3)CC(O)C(F)(F)F)c2)cccc1[N+](=O)[O-] (centres unmarked) [Example 417] | 17 µM
10 | OC(CN(Cc1cccc(OC(F)(F)C(F)F)c1)c1cccc(Oc2ccc3ccccc3c2)c1)C(F)(F)F (centres unmarked) [Example 285] | 1.1 µM
11 | CC(C)(C)CNC(=O)c1cccc(N(Cc2cccc(OC(F)(F)C(F)F)c2)CC(O)C(F)(F)F)c1 (centres unmarked) [Example 462] | 12 µM
12 | OC(CN(Cc1cccc(C2CCCO2)c1)c1cccc(Oc2ccccc2)c1)C(F)(F)F (centres unmarked) [Example 608, 3-[(3-phenoxyphenyl)[[3-(tetrahydro-2-furanyl)phenyl]methyl]amino]-1,1,1-trifluoro-2-propanol] | 2.3 µM
13 | OC(CN(CCc1cccc(F)c1)Cc1cccc(OC(F)(F)C(F)F)c1)C(F)(F)F (centres unmarked) [compound 198] | 15 µM
14 | Cc1cccc(CN(CC(O)C(F)(F)F)c2ccc(F)c(C(F)(F)F)c2)c1 (centres unmarked) [Example 58] | 15 µM
15 | COc1cccc(N(Cc2ccc(C(F)(F)F)cc2)CC(O)C(F)(F)F)c1 (centres unmarked) [Example 26] | 8 µM
16 | COc1ccc(CCCN(CC(O)C(F)(F)F)c2cccc(OC(F)(F)F)c2)cc1 (centres unmarked) [Example 338] | > 100 µM
17 | OC(CN(Cc1cccc(OC(F)(F)C(F)F)c1)c1cccc(Nc2cccc(C(F)(F)F)c2)c1)C(F)(F)F (centres unmarked) [Example 310] | 6.6 µM
18 | OC(CN(Cc1cccc(OC(F)(F)C(F)F)c1)c1cccc(OCc2c(F)c(F)c(F)c(F)c2F)c1)C(F)(F)F (centres unmarked) [Example 376] | 3.3 µM
19 | OC(CN(Cc1cccc(OC(F)(F)C(F)F)c1)c1cccc(Oc2ccccc2Cl)c1)C(F)(F)F (centres unmarked) [Example 222] | 0.27 µM
20 | CCOc1cccc(CN(CC(O)COC(F)(F)C(F)F)c2cccc(Oc3ccccc3)c2)c1 (centres unmarked) [Example 213] | 11 µM
21 | O=C(Nc1cccc(N(Cc2cccc(OC(F)(F)C(F)F)c2)CC(O)C(F)(F)F)c1)Nc1cccc(C(F)(F)F)c1 (centres unmarked) [Example 548] | > 50 µM
22 | CS(=O)(=O)c1ccc(-c2cccc(N(Cc3cccc(OC(F)(F)C(F)F)c3)CC(O)C(F)(F)F)c2)cc1 (centres unmarked) [Example 575] | > 50 µM
23 | O=C(NCc1ccc(F)cc1)c1cccc(N(Cc2cccc(OC(F)(F)C(F)F)c2)CC(O)C(F)(F)F)c1 (centres unmarked) [Example 467] | > 50 µM
24 | O=C(c1cccc(N(Cc2cccc(OC(F)(F)C(F)F)c2)CC(O)C(F)(F)F)c1)N1CCCC1 (centres unmarked) [Example 472] | 11 µM
25 | N#CCOc1cccc(N(Cc2cccc(OC(F)(F)C(F)F)c2)CC(O)C(F)(F)F)c1 (centres unmarked) [Example 491] | 4.4 µM
26 | CS(=O)(=O)c1ccc(S(=O)(=O)c2cccc(N(Cc3cccc(OC(F)(F)C(F)F)c3)CC(O)C(F)(F)F)c2)cc1 (centres unmarked) [Example 487] | > 50 µM

Source: US6723753B2, “Substituted n-benzyl-n-phenyl aminoalcohol compounds useful for inhibiting cholesteryl ester transfer protein activity” (Pharmacia Corporation, priority 2002, dated 2004)
